Assay results taken from patent US20070185072A1, “Nitrogeneous polycyclic derivatives useful as chelators of metal ions and their applications” (priority 2003, published 2007).

System: double transgenic mice over-expressing human APP (V717I) and human PS1 (A242E)
Assay: Amyloid plaque loading (thioflavin S staining of brain sections) in double transgenic mice model of Alzheimer's disease
Assay type: in vivo
Settings: vs control
Description: Mice over-expressing human APP with the London mutation (V717I) and human PS1 bearing the A242E mutation (APP and PS1 stand for amyloid protein precursor and preseniline 1, respectively) were used.
Three molecules were evaluated on these double transgenic mice (6-month old): 3-Propyl-Clip-Phen (molecule B in the histogram below), Cyclo-bi-Phen (molecule G) and Clioquinol (molecule W) (C stands for control, only DMSO diluted in water).
The molecules were initially diluted in DMSO in the presence of 2.6 equivalents of HCl and then in water and the animals were treated by i.p. injection with the two Phen derivatives at 5 mg/kg or at 10 mg/kg for Clioquinol, three times per week (monday, Wednesday and friday) during 9 consecutive weeks. 9 animals were treated for each drugs (control also included 9 animals).
This method is used to quantify the “old” plaques.

[1] = 5 mg/kg i.p. three times per week for 9 weeks

With c1cnc2c(c1)ccc1cc(OCCCOc3cnc4c(ccc5cccnc54)c3)cnc12 [3-Propyl-Clip-Phen] the plaque loading increase [1] was 16%.

Oc1c(I)cc(Cl)c2cccnc12 [Clioquinol, 5-chloro-7-iodo-8-hydroxyquinoline] showed a plaque loading reduction (10 mg/kg i.p. three times per week for 9 weeks) of 28%.

Compound c1nc2c3ccc4cc(cnc42)OCCCOc2cnc4c(ccc5cc(cnc54)OCCCOc1c3)c2 [Cyclo-bi-Phen] has a plaque loading reduction [1] of 38%.
